# According to patent publication US6403644B1, “Method of treating disease with sulfonylamino acid derivatives” (Ono Pharmaceutical Co., Ltd., priority 1995, dated 2002):
# pIC50: −log10 of the molar value.
# Biological target: T1, gelatinase A (Homo sapiens, UniProt P08253)
# T1 construct: endogenous in cells; host or cells: human normal skin dermal fibroblasts (HNDF)
# T1 sequence (P08253 110-660): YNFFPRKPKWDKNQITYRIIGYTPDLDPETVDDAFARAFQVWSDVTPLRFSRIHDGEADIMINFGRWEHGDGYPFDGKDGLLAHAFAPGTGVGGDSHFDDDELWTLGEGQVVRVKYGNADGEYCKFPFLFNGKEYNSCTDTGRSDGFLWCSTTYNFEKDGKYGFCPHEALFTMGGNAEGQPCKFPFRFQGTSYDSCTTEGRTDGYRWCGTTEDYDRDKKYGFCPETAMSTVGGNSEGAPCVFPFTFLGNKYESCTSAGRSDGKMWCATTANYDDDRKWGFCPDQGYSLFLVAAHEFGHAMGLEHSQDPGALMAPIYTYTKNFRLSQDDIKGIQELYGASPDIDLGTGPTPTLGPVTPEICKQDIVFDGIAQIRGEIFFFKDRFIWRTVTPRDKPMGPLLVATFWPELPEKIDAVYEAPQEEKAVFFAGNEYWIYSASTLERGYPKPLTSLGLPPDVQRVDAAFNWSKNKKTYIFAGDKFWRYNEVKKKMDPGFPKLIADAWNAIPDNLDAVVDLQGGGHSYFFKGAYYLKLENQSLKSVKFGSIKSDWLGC
# Test: Inhibitory activity against gelatinase A (FITC-labeled gelatin degradation)
# Type: biochemical
# Conditions: progelatinase A from human normal skin dermal fibroblasts (HNDF), APMA-activated, 2 hours at 37° C., read-out: IC50 for inhibition of gelatinase A activity
# Protocol: The potency of inhibitory activity against each matrix metalloproteinases is confirmed as below. The IC50 value for inhibition of gelatinase A activity is determined as follows.
# (1) Inhibitory activity against gelatinase A
# The progelatinase A (7 μl; in assay buffer (90 μl)) was purified from human normal skin dermal fibroblasts (HNDF). It was activated by the addition of 10 mM of p-aminophenylmercuric acetate (APMA) (10 μl) for 1 hour at 37° C.
# The solution of activated gelatinase A (7 μl/tube, 98 μl) was mixed with various concentrations of the test compound or dimethylsulfoxide (2 μl) and gelatin (100 μl) labeled with 0.05% fluorescein isothiocyanate (FITC) and incubated for 2 hours at 37° C. The reaction was terminated by the addition of 0.1M Tris-HCl (pH9.5) containing 94.7% ethanol (750 μl). The mixture was stirred and then allowed to stand for 30 minutes at 0° C. The mixture was centrifuged for 30 minutes at 900×g. The IC50 was determined by measuring the fluorescent intensity in supernatant (Ex=495 nm, and Em=520 nm).
row,SMILES,pIC50
1,"O=C(O)CNS(=O)(=O)c1ccc(NC(=O)c2ccccc2)cc1 [Example 2(10), N-[[4-(Benzoylamino)phenyl]sulfonyl]glycine]",6.18
2,"O=C(O)CNS(=O)(=O)c1ccc(NC(=O)c2ccc(F)cc2)cc1 [Example 2(11), N-[[4-(4-Fluorobenzoylamino)phenyl]sulfonyl]glycine]",6.10
3,"CCCCCc1ccc(C(=O)Nc2ccc(S(=O)(=O)NCC(=O)O)cc2)cc1 [Example 2(35), N-[[4-(4-Pentylbenzoylamino)phenyl]sulfonyl]glycine]",7.89
4,"CCCCCc1ccc(C(=O)Nc2ccc(S(=O)(=O)N[C@H](Cc3ccccc3)C(=O)O)cc2)cc1 [Example 2(63), N-[[4-(4-Pentylbenzoylamino)phenyl]sulfonyl]-D-phenylalanine]",8.64
5,"Cc1ccc(C(=O)Nc2ccc(S(=O)(=O)N[C@H](Cc3c[nH]c4ccccc34)C(=O)O)cc2)cc1 [Example 3(13), N-[[4-(p-Toluoylamino)phenyl]sulfonyl]-D-tryptophan]",8.57
6,"N=C(N)c1ccc(OC(=O)c2ccc(S(=O)(=O)N[C@@H](Cc3ccccc3)C(=O)O)cc2)cc1 [Example 10(1), N-[[4-(4-Amidinophenoxycarbonyl)phenyl]sulfonyl]-L-phenylalanine methansulfonate]",6.15
7,Cc1ccc(C(=O)Nc2ccc(S(=O)(=O)NCC(=O)O)cc2)cc1 [compound 2],6.96
8,O=C(O)CNS(=O)(=O)c1ccc(OC(=O)c2ccccc2)cc1 [compound 6],6.38
